Data taken from the NIST ThermoML archive (doi:10.1021/je700428f).
± gives the expanded uncertainty stated by the source.

How the values were obtained:
[1] = 101 kPa, Liquid; for viscosity: Capillary tube (Ostwald / Ubbelohde) method
[2] = xn = mol fraction of the nth substance listed; conditions: 101 kPa, Liquid

Structure (SMILES) | mass density ([1]; 273.15 K) | mass density ([1]; 278.15 K) | mass density ([1]; 283.15 K) | mass density ([1]; 288.15 K) | mass density ([1]; 293.15 K) | mass density ([1]; 298.15 K) | mass density ([1]; 303.15 K) | mass density ([1]; 308.15 K) | mass density ([1]; 313.15 K) | mass density ([1]; 318.15 K) | mass density ([1]; 323.15 K) | mass density ([1]; 328.15 K) | mass density ([1]; 333.15 K) | mass density ([1]; 338.15 K) | mass density ([1]; 343.15 K) | mass density ([1]; 348.15 K) | mass density ([1]; 353.15 K) | mass density ([1]; 358.15 K) | mass density ([1]; 363.15 K) | also measured
COC(C)(C)C [2-methoxy-2-methylpropane] | 761.34 ± 0.5 kg/m3 | 756.14 ± 0.51 kg/m3 | 751.02 ± 0.51 kg/m3 | 745.85 ± 0.52 kg/m3 | 740.65 ± 0.53 kg/m3 | 735.4 ± 0.54 kg/m3 | 730.1 ± 0.55 kg/m3 | 724.82 ± 0.56 kg/m3 | 719.42 ± 0.56 kg/m3 | 713.96 ± 0.57 kg/m3 | – | – | – | – | – | – | – | – | – | –
COC(C)(C)C [2-methoxy-2-methylpropane] + CCCCCCCCC | – | – | – | – | – | – | – | – | – | – | – | – | – | – | – | – | – | – | – | mass density ([2]; 273.15 K, x1 = 1): 761.34 ± 0.5 kg/m3; mass density ([2]; 278.15 K, x1 = 1): 756.14 ± 0.51 kg/m3; mass density ([2]; 283.15 K, x1 = 1): 751.02 ± 0.51 kg/m3; mass density ([2]; 288.15 K, x1 = 1): 745.85 ± 0.52 kg/m3; mass density ([2]; 293.15 K, x1 = 1): 740.65 ± 0.53 kg/m3; mass density ([2]; 298.15 K, x1 = 1): 735.4 ± 0.54 kg/m3; mass density ([2]; 303.15 K, x1 = 1): 730.1 ± 0.55 kg/m3; mass density ([2]; 308.15 K, x1 = 1): 724.82 ± 0.56 kg/m3; mass density ([2]; 313.15 K, x1 = 1): 719.42 ± 0.56 kg/m3; mass density ([2]; 318.15 K, x1 = 1): 713.96 ± 0.57 kg/m3
CCCCCCCCCC [decane] | 745.374 ± 0.54 kg/m3 | 741.257 ± 0.55 kg/m3 | 737.502 ± 0.55 kg/m3 | 733.733 ± 0.56 kg/m3 | 729.958 ± 0.56 kg/m3 | 726.174 ± 0.57 kg/m3 | 722.377 ± 0.57 kg/m3 | 718.573 ± 0.58 kg/m3 | 714.753 ± 0.59 kg/m3 | 710.92 ± 0.59 kg/m3 | 707.074 ± 0.6 kg/m3 | 703.213 ± 0.6 kg/m3 | 699.334 ± 0.61 kg/m3 | 695.439 ± 0.62 kg/m3 | 691.522 ± 0.62 kg/m3 | 687.587 ± 0.63 kg/m3 | 683.631 ± 0.64 kg/m3 | 679.651 ± 0.64 kg/m3 | 675.648 ± 0.65 kg/m3 | –
CCCCCCCCCC [decane] + COC(C)(C)C | – | – | – | – | – | – | – | – | – | – | – | – | – | – | – | – | – | – | – | mass density ([2]; 273.15 K, x2 = 0): 745.374 ± 0.54 kg/m3; mass density ([2]; 278.15 K, x2 = 0): 741.257 ± 0.55 kg/m3; mass density ([2]; 283.15 K, x2 = 0): 737.502 ± 0.55 kg/m3; mass density ([2]; 288.15 K, x2 = 0): 733.733 ± 0.56 kg/m3; mass density ([2]; 293.15 K, x2 = 0): 729.958 ± 0.56 kg/m3; mass density ([2]; 298.15 K, x2 = 0): 726.174 ± 0.57 kg/m3; mass density ([2]; 303.15 K, x2 = 0): 722.377 ± 0.57 kg/m3; mass density ([2]; 308.15 K, x2 = 0): 718.573 ± 0.58 kg/m3; mass density ([2]; 313.15 K, x2 = 0): 714.753 ± 0.59 kg/m3; mass density ([2]; 318.15 K, x2 = 0): 710.92 ± 0.59 kg/m3; mass density ([2]; 323.15 K, x2 = 0): 707.074 ± 0.6 kg/m3; mass density ([2]; 328.15 K, x2 = 0): 703.213 ± 0.6 kg/m3; mass density ([2]; 333.15 K, x2 = 0): 699.334 ± 0.61 kg/m3; mass density ([2]; 338.15 K, x2 = 0): 695.439 ± 0.62 kg/m3; mass density ([2]; 343.15 K, x2 = 0): 691.522 ± 0.62 kg/m3; mass density ([2]; 348.15 K, x2 = 0): 687.587 ± 0.63 kg/m3; mass density ([2]; 353.15 K, x2 = 0): 683.631 ± 0.64 kg/m3; mass density ([2]; 358.15 K, x2 = 0): 679.651 ± 0.64 kg/m3; mass density ([2]; 363.15 K, x2 = 0): 675.648 ± 0.65 kg/m3
CCCCCCCCC [nonane] | 733.184 ± 0.57 kg/m3 | 729.335 ± 0.58 kg/m3 | 725.473 ± 0.59 kg/m3 | 721.603 ± 0.59 kg/m3 | 717.725 ± 0.6 kg/m3 | 713.834 ± 0.6 kg/m3 | 709.929 ± 0.61 kg/m3 | 706.011 ± 0.61 kg/m3 | 702.076 ± 0.62 kg/m3 | 698.124 ± 0.63 kg/m3 | 694.151 ± 0.63 kg/m3 | 690.165 ± 0.64 kg/m3 | 686.154 ± 0.64 kg/m3 | 682.116 ± 0.65 kg/m3 | 678.06 ± 0.66 kg/m3 | 673.979 ± 0.66 kg/m3 | 669.872 ± 0.67 kg/m3 | 665.73 ± 0.68 kg/m3 | 661.557 ± 0.68 kg/m3 | viscosity ([1]; 273.15 K): 0.972 ± 0.01 mPa·s; viscosity ([1]; 278.15 K): 0.896 ± 0.01 mPa·s; viscosity ([1]; 283.15 K): 0.828 ± 0.01 mPa·s; viscosity ([1]; 288.15 K): 0.768 ± 0.009 mPa·s; viscosity ([1]; 293.15 K): 0.716 ± 0.009 mPa·s; viscosity ([1]; 298.15 K): 0.669 ± 0.009 mPa·s; viscosity ([1]; 303.15 K): 0.628 ± 0.009 mPa·s; viscosity ([1]; 308.15 K): 0.59 ± 0.009 mPa·s; viscosity ([1]; 313.15 K): 0.555 ± 0.009 mPa·s; viscosity ([1]; 318.15 K): 0.522 ± 0.009 mPa·s; viscosity ([1]; 323.15 K): 0.493 ± 0.009 mPa·s; viscosity ([1]; 328.15 K): 0.466 ± 0.009 mPa·s; viscosity ([1]; 333.15 K): 0.442 ± 0.009 mPa·s; viscosity ([1]; 338.15 K): 0.42 ± 0.009 mPa·s; viscosity ([1]; 343.15 K): 0.399 ± 0.009 mPa·s; viscosity ([1]; 348.15 K): 0.38 ± 0.008 mPa·s; viscosity ([1]; 353.15 K): 0.362 ± 0.008 mPa·s; viscosity ([1]; 358.15 K): 0.346 ± 0.008 mPa·s
